Measurements: patent publication US9585864B2, “Anticancer formulation” (National Dong Hwa University, priority 2010, dated 2017)

Legend:
[1] = system: DBTRG-05MG cells (human GBM); assay: Matrigel invasion chamber and PET membrane migration assay; assay type: cell-based; settings: 24 hours
Experimental: The invasion of DBTRG-05MG cells was examined using a BioCoat matrigel invasion chamber system (BD Bioscience, Bedford, Mass.). The BD matrigel Matrix is composed of laminin, collagen IV, nidogen/entrctin, and proteoglycan on polyethylene terephthalate (PET) membranes containing 8 μm pores. In the in vitro migration assay, low pore density PET track-etched membrane on Falcon culture insert (BD Bioscience) was applied. The membrane was placed between the upper and lower wells of a Matrigel chamber or Falcon culture inserts. The cells were first resuspended in PRMI 1640 containing 10% fetal bovine serum and seeded into the upper wells of the chamber (50,000 cells per well). After incubating for 24 hours at 37° C., the cells that invaded or migrated through the membrane were stained with Liu stain (Handsel Technologies, Inc., Taipei, Taiwan) and counted under a microscopy. Each experiment was repeated thrice.

[2] = system: Axl receptor tyrosine kinase (RTK); assay: RT-PCR and Western blot of Axl expression in GBM cells; assay type: cell-based
Experimental: Reverse transcriptase-polymerase chain reaction (RT-PCR) was used to examine the effect of z-Bdph on the gene expression profile in GBM cells to elucidate the possible mechanisms of z-Bdph's inhibition of malignant brain tumor.
Western Blot assays were also carried out to examine the Axl protein level of the GBM cells in the presence of z-Bdph.

[3] = system: Nur77 in DBTRG-05NG cells (human GBM cells); assay: Nur77 translocation by immunostaining, fluorescence microscopy; assay type: cell-based; settings: 100 μg/mL, 24 hours
Experimental: Whether translocation of Nur77 occurred in response to z-Bdph was examined. DBTRG-05NG cells (human GBM cells) were treated with Bdph (100 μg/mL) for 24 hours, then immunostained with anti-Nur77 antibody followed by corresponding Rhodamine-conjugated anti-IgG secondary antibody. Simultaneously, cells were stained with DAPI to display the nuclei. The fluorescent images were visualized with a fluorescence microscope.

JNK, AKT, ERK = assay: Western blot of signaling pathway phosphorylation in RG2 cells; assay type: cell-based, rat; settings: 100 μg/ml, treatment for 1 hour
Experimental: Finally, signaling pathways involved in z-Bdph-induced Nur77 gene expression were investigated. RG2 cells were treated with Bdph (100 μg/ml) for various time periods (0, 15, 30, 60, and 180 mins).

Nur77 = assay: RT-PCR of orphan receptor Nur77 mRNA expression in RG2 cells; assay type: cell-based, rat; settings: IC50 concentration of z-Bdph, 0, 0.5, 1, 3 and 6 h
Experimental: To confirm the results of the oligodeoxynucleotide-based microarray analysis, expression of the orphan receptors NOR-1, Nurr1, and Nur77 was examined in z-Bdph-treated RG2 cells by RT-PCR.
RG2 cells were incubated with IC50 concentration of z-Bdph for various time periods (0, 0.5, 1, 3, and 6 h). After incubation, cells were collected and total RNA isolated. Expression of GADPH was used as an internal control.

CCC/C=C1\OC(=O)c2ccccc21 [z-Bdph, (Z)-n-butylidenephthalide]
invasion of DBTRG-05MG cells ([1]; BioCoat matrigel invasion chamber): inhibited migration and invasion of DBTRG-05MG cells in a dose dependent manner
migration of DBTRG-05MG cells ([1]; PET track-etched membrane): inhibited migration and invasion of DBTRG-05MG cells in a dose dependent manner
mRNA expression of Axl receptor tyrosine kinase ([2]; RT-PCR): down-regulated
Axl protein level ([2]; Western blot): reduced
translocation of Nur77 [3]: Nur77 was translocated from the nucleus to the cytoplasm
phosphorylation of JNK, AKT, ERK (JNK, AKT, ERK): JNK, AKT, ERK were significantly phosphorylated
mRNA expression of Nur77 (Nur77): induced in the cells in a time-dependent manner
